{
  "source": "paper PMC2867956",
  "about": "“Interdomain Interactions Control Ca^2+-Dependent Potentiation in the Cation Channel TRPV4” (PLoS ONE, 2010)",
  "key": {"TRPV4 mutant KRA": {"system": "TRPV4 mutant KRA", "test": "Whole-cell patch clamp, TRPV4 mutant KRA", "conditions": "4α-PMA 1 µM, nominally Ca^2+-free; -100 and +100 mV, p = 0.012 and 0.007; n = 5", "protocol": "(§4) Patch clamp recordings were performed on HEK293 cells in the whole cell configuration. Cells were clamped at a potential of −20 mV, and current-voltage (I–V) relations were obtained from voltage ramps from −100 mV to +100 mV. The standard extracellular solution contained 140 mM NaCl, 5 mM CsCl, 2 mM CaCl2, 1 mM MgCl2, 10 mM glucose, and 10 mM HEPES (pH 7.4 with NaOH). In nominally Ca^2+-free solutions, Ca^2+ was omitted. The standard intracellular solution contained 110 mM cesium methanesulfonate, 25 mM CsCl, 2 mM MgCl2, 0.362 mM CaCl2, 1 mM EGTA, and 30 mM HEPES (pH 7.2 with CsOH) with a calculated [Ca^2+] of 100 nM.\n(§5) Patch clamp recordings were performed on HEK293 cells in the whole cell configuration using an EPC10 amplifier and Pulse software (HEKA, Lamprecht, Germany). […] Cells were clamped at a potential of –20 mV, and current-voltage (I-V) relations were obtained from voltage ramps from –100 mV to +100 mV with a duration of 400 ms applied every 4 seconds. Ramp data were acquired with a sampling rate of 20 kHz after filtering at 4 kHz. […] The standard intracellular solution contained 110 mM cesium methanesulfonate, 25 mM CsCl, 2 mM MgCl2, 0.362 mM CaCl2, 1 mM EGTA, and 30 mM HEPES (pH 7.2 with CsOH) with a calculated [Ca^2+] of 100 nM (MaxChelator, Chris Patton, Stanford, USA). […]"}, "CFP-TRPV4-YFP": {"system": "CFP-TRPV4-YFP", "conditions": "HEK293 cells, Ca^2+-containing buffer; 4α-PMA data not shown; concomitant increase in donor fluorescence"}, "wt TRPV4": {"system": "wt TRPV4", "test": "Whole-cell patch clamp, wild type TRPV4", "assay_type": "cell-based, human", "excerpt": "(§1) (See Methods S1 for details)."}, "TRPV4 mutant WIA": {"system": "TRPV4 mutant WIA", "test": "Whole-cell patch clamp, TRPV4 mutant WIA", "conditions": "4α-PMA 1 µM, nominally Ca^2+-free; -100 and +100 mV, p = 0.014 and 0.023; n = 8", "protocol": "as §4, §5"}, "CaM": {"target": "CaM (UniProt P0DP23)", "test": "Fluorescence polarization, CaM binding to carboxyfluorescein-labeled TRPV4 peptides", "conditions": "50 mM Tris pH 7.5, 100 mM KCl, 0.1% BSA, triplicate", "experimental": "(§2) Protein interaction experiments were performed in buffers containing 50 mM Tris, pH 7.5, 100 mM KCl, 0.1% BSA and calcium at the indicated concentrations. Calcium concentrations below 50 µM were buffered with HEDTA, EGTA or EDTA at a buffer concentration of 10 mM. CaM concentrations were 10 µM or as indicated; the tracer peptide concentration was 100 nM. Fluorescence anisotropy was measured in a 384-well black multititer plate (Fluotrac 200, Greiner) using a Fusion alpha FP instrument (PerkinElmer) at 1 s reading time per well. Fluorescence polarization (FP) was calculated according to: [drawing 1] with Ipar and Iperp as the fluorescence emission intensities in planes parallel and perpendicular to the excitation plane. FP signals are given as mean±SEM of triplicate measurements in milli-P (mP) units.\n(0.11 MB TIF) Click here for additional data file."}, "TRPV4 [1]": {"system": "TRPV4", "test": "FRET acceptor bleaching, full-length TRPV4 N and C termini in HEK293 cells", "assay_type": "cell-based, human", "conditions": "extrapolated donor increase at full acceptor photobleaching; unstimulated HEK293; n = 7 (CFP-TRPV4-YFP), 20 and 13 as printed 'respectively'; p<0.0001 versus control", "excerpt": "as §1"}, "TRPV4 C2 fragment [2]": {"system": "TRPV4 C2 fragment", "test": "AlphaScreen interdomain interaction with C2", "assay_type": "binding, human", "excerpt": "First, we did a complementation experiment to test whether a CaM molecule that binds to the C2 fragment of TRPV4 through its C-lobe can form an additional interaction with another CaM binding domain thus forming a ternary complex. […] We used an AlphaScreen-based proximity assay (Fig. 2, Methods S1) in which the acceptor beads were coated with the C-terminal fragment C2-Flag, and the donor beads either with the N-terminal CaM binding peptide P2-biotin, or, as a negative control, with C2-biotin. The interaction between the proteins was measured in the presence of increasing CaM concentrations in 100 µM Ca^2+ or 1 mM EGTA (Fig. 3A).\nIn an AlphaScreen interaction experiment, donor and acceptor beads were incubated with 10 nM C2-biotin and N2-Flag at concentrations ranging from 30 pM to 1.5 µM, respectively (Fig. 3C).\n(§3) Proteins were expressed in E. coli, affinity purified and biotinylated if applicable (for details see Methods S1). For protein interaction measurements, a proximity assay system based on the AlphaScreen technology (PerkinElmer) was used (see Methods S1). Briefly, streptavidin-coated AlphaScreen donor and anti-Flag acceptor beads at a final concentration of 16.7 µg/ml were incubated in a 384-well plate format (OptiPlate-384, PerkinElmer) with C2-GST-biotin or P2-biotin and the respective Flag-tagged interaction protein at concentrations of 10 nM, if not otherwise indicated. Assay buffer conditions were 50 mM Tris, pH 7.4, 100 mM KCl, and 0.1% BSA. After incubation for 90 min at room temperature, the AlphaScreen output signal was recorded in a Fusion alpha FP instrument (PerkinElmer) at 2 s reading time per well. AlphaScreen signals are given as mean±SEM in counts per second (cps) units.\nThe expression plasmids containing the cDNA for CaM or TRPV4 fragments in the pGEX-2TK vector (Amersham) or a modified derivative that contains an in-frame Flag epitope 5’ to the multiple cloning site were transformed into the BL21(DE3) Escherichia coli host, and protein expression was induced by 200 mg/ml IPTG at an OD600 of 0.6. […] The GST-Flag fusion proteins were eluted with 50 mM Tris, pH 8.5, 100 mM KCl, and 10 mM glutathione. […] The purity of all proteins was confirmed by SDS-polyacrylamide gel electrophoresis and Coomassie staining, and the protein concentration determined by the method according to Bradford using an albumin concentration standard. […]\nTo establish an improved interaction assay, that allows the quantification of protein interactions on a medium to high throughput scale, a commercially available proximity assay system based on the AlphaScreen (Amplified Luminescent Proximity Homogenous Assay) technology (PerkinElmer) was modified. […]"}, "[3]": {"system": "TRPV4 C terminus peptide library", "test": "Peptide library overlay, TRPV4 C terminus", "assay_type": "binding, human", "conditions": "20-mer peptides on filter, 100 nM biotinylated protein", "excerpt": "(0.31 MBTIF) Click here for additional data file."}, "TRPV4 [4]": {"system": "TRPV4", "test": "Whole-cell patch clamp, effect of CaM/CaM mutant overexpression on Ca^2+-dependent TRPV4 current increase", "assay_type": "cell-based, human", "excerpt": "This mutant may bind and displace endogenous CaM, but, owing to the N-terminal mutation, cannot fully substitute for the wild type molecule.\nas §1"}, "TRPV4 C2 fragment [5]": {"system": "TRPV4 C2 fragment", "test": "AlphaScreen-based CaM interaction assay with C2", "assay_type": "binding, human", "experimental": "as §3\nThe expression plasmids containing the cDNA for CaM or TRPV4 fragments in the pGEX-2TK vector (Amersham) or a modified derivative that contains an in-frame Flag epitope 5’ to the multiple cloning site were transformed into the BL21(DE3) Escherichia coli host, and protein expression was induced by 200 mg/ml IPTG at an OD600 of 0.6. […] The GST-Flag fusion proteins were eluted with 50 mM Tris, pH 8.5, 100 mM KCl, and 10 mM glutathione. The GST-fusion proteins intended for subsequent biotinylation were subjected to an additional wash step with 50 mM HEPES, pH 7.4, 100 mM KCl and eluted with 50 mM HEPES, pH 8.5, 100 mM KCl, and 10 mM glutathione. The purity of all proteins was confirmed by SDS-polyacrylamide gel electrophoresis and Coomassie staining, and the protein concentration determined by the method according to Bradford using an albumin concentration standard. Biotinylation was performed using a 10-fold molar excess of biotinamidocaproate N-hydroxysuccinimide ester (Sigma). After incubation at 4 °C for 12 h, the reaction was stopped by addition of a 10-fold molar excess of NH4Cl and unbound biotin ester removed by extensive dialysis against 50 mM Tris, pH 7.4, 100 mM KCl.\nTo establish an improved interaction assay, that allows the quantification of protein interactions on a medium to high throughput scale, a commercially available proximity assay system based on the AlphaScreen (Amplified Luminescent Proximity Homogenous Assay) technology (PerkinElmer) was modified. The assay principle had been originally developed as an enhanced immunoassay and initially termed luminescent oxygen channeling immunoassay (LOCI [1]). […] The resulting emission at a wavelength of 370 nm is further transformed by fluorophores within the bead into a final emission between 520 nm and 620 nm that can be detected by a photomultiplier. […]"}, "[6]": {"target": "P5 peptide (TRPV4 C-terminal CaM binding site)", "test": "Fluorescence polarization, binding of CaM and isolated CaM lobes to labeled P5", "design": "species or system human", "conditions": "binding to fluorophore-labeled P5 at 100 µM Ca^2+; tracer 100 nM; pH 7.5", "experimental": "We analyzed the properties of the complex between CaM and C-terminal fragments of the human TRPV4 ortholog, and investigated the structural determinants within the CaM molecule that are involved in binding.\nas §2, with “Tracer peptides were synthesized and coupled to carboxyfluorescein (Dr. Sven Rothemund, Core unit peptide technologies, IZKF, Leipzig). Protein” for “Protein”"}, "[7]": {"conditions": "labeled peptide 100 nM, CaM 10 µM or as indicated, value is Ca^2+ concentration, read-out: Ca^2+ concentration at half-maximal CaM binding (Ca^2+-dependence, EC50)"}},
  "note": "“Also recorded” adds a separate entry of the source. Where two headings read alike, the source gives them in different places. No end group written: not given here.",
  "data": [
    {"compound": "CCCCCCCCCCCCCC(=O)O[C@@H]1[C@@H](C)[C@@]2(O)[C@@H](C=C(CO)C[C@@]3(O)C(=O)C(C)=C[C@@H]23)[C@@H]2C(C)(C)[C@]12OC(C)=O", "note": "[4α-PMA]", "values": [
      {"measurement": "current activated by 4α-PMA versus wild type", "setting": "TRPV4 mutant KRA", "result": "Significantly larger currents; also recorded: significantly larger than the wild type"},
      {"measurement": "change in FRET fluorescence on stimulation", "setting": "CFP-TRPV4-YFP", "result": "transient decreases in the FRET"},
      {"measurement": "current activated by 4α-PMA", "setting": "wt TRPV4; 4α-PMA 1 µM, nominally Ca^2+-free, wild type, n = 9", "result": "slow, small increase in currents"},
      {"measurement": "activation of TRPV4", "setting": "wt TRPV4; nominally Ca^2+-free solutions, HEK293 cells", "result": "weak and slow"},
      {"measurement": "current activated by 4α-PMA versus wild type", "setting": "TRPV4 mutant WIA", "result": "Significantly larger currents; also recorded: significantly larger than the wild type"}
    ]},
    {"compound": "CC(C)C[C@H](NC(=O)[C@H](CCCNC(=N)N)NC(=O)CNC(=O)[C@@H](NC(=O)[C@@H](NC(=O)[C@H](Cc1c[nH]cn1)NC(=O)[C@H](CO)NC(=O)[C@H](Cc1ccccc1)NC(=O)CN)[C@@H](C)O)C(C)C)C(=O)N[C@@H](CCCNC(=N)N)C(=O)N[C@@H](CCCNC(=N)N)C(=O)N[C@@H](CC(=O)O)C(=O)N[C@@H](CCCNC(=N)N)C(=O)N[C@@H](Cc1c[nH]c2ccccc12)C(=O)N[C@@H](CO)C(=O)N[C@@H](CO)C(=O)N[C@H](C(=O)N[C@H](C(=O)N1CCC[C@H]1C(=O)N[C@@H](CCCNC(=N)N)C(=O)N[C@H](C(=O)N[C@H](C(=O)N[C@@H](CCC(=O)O)C(=O)O)C(C)C)C(C)C)C(C)C)C(C)C", "note": "[P5]", "values": [
      {"measurement": "EC50", "setting": "CaM; [7]", "result": 3.2, "unit": "µM"}
    ]},
    {"compound": "C-V4-Y: TRPV4 with CFP and YFP fused to the N- and C termini", "values": [
      {"measurement": "FRET efficiency", "setting": "TRPV4 [1]", "result": "14.6±1.1"}
    ]},
    {"compound": "GRPNLRMKFQGAFRKGVPNP [P1]", "values": [
      {"measurement": "EC50", "setting": "CaM; [7]", "result": 3.6, "unit": "µM"}
    ]},
    {"compound": "N3: N-terminal TRPV4 fragment, residues 114-161, includes P2 (RHHSSDNKRWRKKIIEKQPQSPKAPAPQPPPILKVFNRPILFDIVSRG; UniProt Q9HBA0 114-161, looked up, fragment)", "values": [
      {"measurement": "interaction with C2", "setting": "TRPV4 C2 fragment [2]; 10 nM C2-biotin, N2-Flag 30 pM to 1.5 µM, N3 data not shown", "result": "interdomain interaction could also be shown"},
      {"measurement": "overlay binding site, C terminus library", "setting": "[3]", "result": "strong interaction was found with a region that corresponds to the CaM binding peptide P5"}
    ]},
    {"compound": "RSFPVFLRKAFRSGEMVTVGKSSD [P4]", "values": [
      {"measurement": "EC50", "setting": "CaM; [7]", "result": 7.3, "unit": "µM"},
      {"measurement": "EC50", "setting": "CaM; tracer peptide 100 nM, CaM 0.1 nM to 10 µM, read-out: CaM binding EC50", "result": 5, "unit": "µM"}
    ]},
    {"compound": "SSDNKRWRKKIIEKQPQSPK [P2]", "values": [
      {"measurement": "interaction with C2-Flag", "setting": "TRPV4 C2 fragment [2]; 100 µM Ca^2+ or 1 mM EGTA, absence of CaM (C2: absence or presence of CaM)", "result": "strong constitutive interaction"},
      {"measurement": "Ca^2+-dependence of P2/C2 interaction", "setting": "TRPV4 C2 fragment [2]; no CaM, Ca^2+ 10 nM to 10 mM", "result": "already present at 0 Ca^2+ and essentially Ca^2+-insensitive over a wide range of Ca^2+ concentrations"}
    ]},
    {"compound": "calmodulin [CaM]", "values": [
      {"measurement": "current increase upon addition of Ca^2+ on overexpression", "setting": "TRPV4 [4]; HEK293 cells coexpressing TRPV4, 4α-PMA in Ca^2+-free bath, then 2 mM Ca^2+, +100 and -100 mV, CaM12 p = 0.013 and 0.007 compared to CaM overexpression", "result": "slightly increased the TRPV4 response to Ca^2+, but the increase is not statistically significant"},
      {"measurement": "effect on spontaneous or 4α-PMA-activated currents", "setting": "TRPV4 [4]; nominally Ca^2+-free solution, data not shown", "result": "had no effect on spontaneous currents, or currents activated by 4α-PMA"},
      {"measurement": "EC50", "setting": "TRPV4 C2 fragment [5]; AlphaScreen, C2-biotin with CaM-Flag or mutant, 10 nM each, value is Ca^2+ concentration, 50 mM Tris pH 7.4, 100 mM KCl, 0.1% BSA, 90 min room temperature, n = 3 independent experiments in triplicate, read-out: EC50 Ca^2+ concentration for C2 interaction (half maximal binding)", "result": "8.8 ± 1", "unit": "µM"},
      {"measurement": "AlphaScreen signal of CaM/C2 in EGTA", "setting": "TRPV4 C2 fragment [5]; CaM-biotin and C2-Flag in 1 mM EGTA", "result": "No signal was detected"},
      {"measurement": "Hill coefficient (common)", "setting": "TRPV4 C2 fragment [5]; Ca^2+-dependence of C2 binding, common fit for CaM, CaM12 and CaM34, n = 3", "result": 2.0},
      {"measurement": "binding to TRPV4", "setting": "TRPV4 C2 fragment [5]; Ca^2+-free buffers for CaM", "result": "neither binds to CaM in Ca^2+-free buffers"},
      {"measurement": "Kd", "setting": "[6]", "result": 0.4, "unit": "µM"}
    ]}
  ]
}
